Experiment [1] has as its target T1, HCV genotype 1b NS3-4A protease WT (Hepatitis C virus genotype 1b, UniProt Q9WMX2).
T1 construct: covalently joined to the NS3 protease domain (aa 1-182) via an amino acid linker GSGS; 6x histidine tag (N); TEV protease cleavage site (N); NS4A central peptide (NS4A aa 21-32), fused N-terminally of NS3; made in house; host or cells: E. coli BL21 (λDE3)
The experiment can be described thus: FRET enzyme inhibition assay, NS3 WT (SensoLyte 520 HCV protease assay Kit). It counts as biochemical, hepatitis C virus (HCV) genotype 1b. The source says: (§1) The HCV genotype 1b NS3-4A protease domain from the plasmid pFKI389 Luc-ubi-neo/NS3-3'/ET (kindly provided by Dr. Ralf Bartenschlager) was amplified with the antisense primer 5'-[…]-3'containing a BamHI enzyme restriction site and the sense primer 5'-[…]-3' containing a HindIII enzyme restriction site. This fragment was cloned into a pET21dhis-TEV bacterial expression vector (a pET21d plasmid, which was modified to codify a 6x histidine tag followed by a cleavage site recognized by the Tobacco Etch virus nTev protease at the protein N-terminus). The single chain NS3-4A protease contains the protease domain (182 amino acids) and a 20-aa portion of the cofactor NS4A ([Abrahim-Vieira et al., 2014]).
Protein expressions were carried out as described previously with some modifications to simplify techniques and to perform the protocol in a smaller inoculum volume ([Abrahim-Vieira et al., 2014]). Transformed BL21 (λDE3) cells were grown at 37°C in 500 mL of LB medium containing […] ampicilin until an OD600 of 0.6-0.8 was reached. Then, cultures were induced with 0.5 mM isopropyl-1-thio-β-D-galactopyranoside (IPTG) and incubated with shaking at 25 °C for 4 h. Cells expressing NS3-4A constructs were harvested by centrifugation and stored at −80 °C. […] Purified NS3-4A constructs were quantified with Micro BCA Protein Assay Kit (Thermo Scientific). […]

Experiment [2] deals with HCV NS3-4A protease T54A. The conditions noted are these: mutant T54A vs NS3 WT.
Text: as §1
(§2) Protein expressions were carried out as described previously with some modifications to simplify techniques and to perform the protocol in a smaller inoculum volume ([Abrahim-Vieira et al., 2014]). Transformed BL21 (λDE3) cells were grown at 37°C in 500 mL of LB medium containing […] ampicilin until an OD600 of 0.6-0.8 was reached. Then, cultures were induced with 0.5 mM isopropyl-1-thio-β-D-galactopyranoside (IPTG) and incubated with shaking at 25 °C for 4 h. Cells expressing NS3-4A constructs were harvested by centrifugation and stored at −80 °C. All resuspension steps were performed at 4 °C. Frozen pellets were resuspended in 12.5 mL of buffer A (Tris-HCl 50 mM pH 7.5; NaCl 300 mM; 2 mM β-mercaptoethanol; 10% glycerol; 0.5% Triton X-100). After resuspension, lysates were treated with lysozyme (5 mg/mL) for 1 h with stirring, subjected to 20 cycles of 15 s of sonication and 30 s of resting. Lysates were cleared by centrifugation at 12.000 g for 30 min and the supernatant filtered with 0.22 μM filter units (Nalgene). After filtration, supernatants were applied in 2 mL of Ni-NTA Agarose (Life Technologies) previously washed with distilled water and equilibrated with buffer A. Agarose resin was washed three times with buffer A and recombinant proteins were eluted with buffer A with 125, 250 and 500 mM imidazol (buffer B). […] Fractions were pooled and dialyzed overnight against buffer A with SnakeSkin Dialysis Tubing 10K MWCO (Thermo Scientific). Purified NS3-4A constructs were quantified with Micro BCA Protein Assay Kit (Thermo Scientific).
(§3) All enzyme inhibition assays were performed in nonbinding black surface 96-well plates (Corning).

Experiment [3] has as its system HCV NS3-4A protease T54S + V170I. Conditions: mutant T54S + V170I vs NS3 WT.
Text: as §1, §2, §3

Experiment [4] concerns HCV NS3-4A protease V158I. Conditions: mutant V158I vs NS3 WT.
Text: as §1, §2, §3

The test system of experiment [5] is HCV NS3-4A protease V170I. The conditions noted are these: mutant V170I vs NS3 WT.
Text: as §1, §2, §3

For experiment [6], the system named is HCV NS3-4A protease V36M. Conditions: mutant V36M vs NS3 WT.
Text: as §1, §2, §3

T1 sequence (Q9WMX2 1027-1208 limits assumed): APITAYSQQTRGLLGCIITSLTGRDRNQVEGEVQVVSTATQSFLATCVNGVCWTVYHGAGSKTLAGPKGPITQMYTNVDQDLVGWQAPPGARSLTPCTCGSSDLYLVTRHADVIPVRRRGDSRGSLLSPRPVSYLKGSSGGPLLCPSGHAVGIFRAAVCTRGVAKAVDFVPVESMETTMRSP

A word on the IC50: it is the midpoint of a concentration-inhibition curve. In experiment [1], `COc1ccc2c(O[C@@H]3C[C@H]4C(=O)N[C@]5(C(=O)NS(=O)(=O)C6CC6)C[C@H]5/C=C\CCCCN(C)C(=O)[C@@H]4C3)cc(-c3nc(C(C)C)cs3)nc2c1C` [Simeprevir] returned a 50% inhibitory concentration (IC50) of 0.017 µM. Besides, the “fold change (mutant IC50 median/WT IC50 median)” value in experiment [2] was determined as 6.3 fold; in experiment [3], 3.8 fold; in experiment [4] it was 0.1 fold; in experiment [5], 3.2 fold; in experiment [6], 0.4 fold.

For the molecule `CCC[C@H](NC(=O)[C@@H]1[C@H]2CCC[C@H]2CN1C(=O)[C@@H](NC(=O)[C@@H](NC(=O)c1cnccn1)C1CCCCC1)C(C)(C)C)C(=O)C(=O)NC1CC1` [Telaprevir], in experiment [1], inhibition was half-maximal at 0.13 µM (IC50).
